This assay concerns the target T1, Capsid scaffolding protein (Human cytomegalovirus (strain AD169) (HHV-5) (Human herpesvirus 5), UniProt P16753).
T1 sequence (P16753 whole entry): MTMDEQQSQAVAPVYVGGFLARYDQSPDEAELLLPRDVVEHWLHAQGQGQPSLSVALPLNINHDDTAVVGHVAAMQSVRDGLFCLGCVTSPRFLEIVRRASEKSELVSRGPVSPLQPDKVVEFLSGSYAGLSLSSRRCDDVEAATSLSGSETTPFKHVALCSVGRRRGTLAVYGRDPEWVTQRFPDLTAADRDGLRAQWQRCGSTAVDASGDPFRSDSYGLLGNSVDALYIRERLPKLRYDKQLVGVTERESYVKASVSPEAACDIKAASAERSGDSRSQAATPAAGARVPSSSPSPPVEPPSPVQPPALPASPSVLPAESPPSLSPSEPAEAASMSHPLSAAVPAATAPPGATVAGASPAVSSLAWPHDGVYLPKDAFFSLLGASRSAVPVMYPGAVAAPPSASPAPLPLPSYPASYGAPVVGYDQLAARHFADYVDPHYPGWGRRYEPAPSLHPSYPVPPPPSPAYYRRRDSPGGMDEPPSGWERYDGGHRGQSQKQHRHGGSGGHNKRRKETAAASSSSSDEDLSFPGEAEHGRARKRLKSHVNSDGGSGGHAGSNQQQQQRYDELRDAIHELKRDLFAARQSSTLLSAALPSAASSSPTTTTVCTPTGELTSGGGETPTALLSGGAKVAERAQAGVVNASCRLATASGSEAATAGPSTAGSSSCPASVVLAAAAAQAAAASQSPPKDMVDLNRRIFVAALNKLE
In words: Inhibitory activity against human cytomegalovirus (HCMV) protease was evaluated. On the set-up: species or system Human betaherpesvirus 5.
A word on the IC50: it is the concentration needed to halve the response being measured. A higher IC50 goes with weaker potency. `CCCCCCCC1=CC(=O)c2ccccc2S1(=O)=O` registered a concentration for half-maximal inhibition (IC50) of 1400 nM.
As for `Cc1cccc2c1S(=O)(=O)C(c1ccc([N+](=O)[O-])cc1)=CC2=O`, the figure is 110 nM.
Compound `CS(=O)(=O)c1ccc(C2=CC(=O)c3ccccc3S2(=O)=O)cc1` displayed an IC50 of 100 nM.
Consider `CC(C)(C)C1=CC(=O)c2ccccc2S1(=O)=O`, for which the IC50 was above 34000 nM.
In the case of `O=C1C=C(c2ccccc2)S(=O)(=O)c2ccccc21` it was 1500 nM; in that of `O=C1C=C(c2cc[n+]([O-])cc2)S(=O)(=O)c2ccccc21`, 600 nM; in that of `O=C1C=C(c2ccc[n+]([O-])c2)S(=O)(=O)c2ccccc21`, 600 nM.
Take `O=C1C=C(c2ccncc2)S(=O)(=O)c2ccccc21`: inhibition was half-maximal at 100 nM (IC50).
Consider `CCOC(=O)c1ccc2c(c1)C(=O)C=C(c1ccc([N+](=O)[O-])cc1)S2(=O)=O`, for which it took 180 nM to reach half-maximal inhibition (IC50).
With `O=C1C=C(c2ccsc2)S(=O)(=O)c2ccccc21`, the IC50 is above 34000 nM.
For `O=c1cc(-c2cccnc2)sc2ccccc12`, the IC50 was above 34000 nM.
The compound `O=C1C=C(c2cccnc2)S(=O)(=O)c2ccccc21` yielded an IC50 of 200 nM.
`O=c1cc(-c2ccccc2)sc2ccccc12` had an IC50 above 34000 nM.
For `O=C1C=C(c2ccc([N+](=O)[O-])cc2)S(=O)(=O)c2ccccc21`, half-maximal inhibition (IC50) required 60 nM.
`O=C1C=C(c2ccc(-c3ccccc3)cc2)S(=O)(=O)c2ccccc21` gave an IC50 of 60 nM.
In the case of `CC(C)c1cccc2c1S(=O)(=O)C(c1ccc([N+](=O)[O-])cc1)=CC2=O` it was 180 nM; in that of `O=c1cc(-c2ccccc2)[s+]([O-])c2ccccc12` (stereo not given), 10000 nM; in that of `CS(=O)(=O)c1ccc(-c2cc(=O)c3ccccc3s2)cc1`, above 34000 nM.
With `Cc1cccc2c1C(=O)C=C(c1ccc([N+](=O)[O-])cc1)S2(=O)=O`, the 50% inhibitory concentration (IC50) came out at 100 nM.
Regarding `O=C1C=C(c2cccs2)S(=O)(=O)c2ccccc21`, 460 nM corresponded to half-maximal inhibition (IC50). Against the preceding compound, the IC50 is about 4.6-fold higher.

Values taken from ChEMBL document CHEMBL1130727, “Benzothiopyran-4-one based reversible inhibitors of the human cytomegalovirus (HCMV) protease” (Bioorg Med Chem Lett, 1998).
